The record followed here is patent US10000483B2, “Bone marrow on X chromosome kinase (BMX) inhibitors and uses thereof” (Dana-Farber Cancer Institute, Inc., priority 2012, dated 2018).

One experiment has as its target mTOR (Homo sapiens (Human), UniProt P42345). The experiment in a line: Invitrogen Select Screening in vitro kinase assay. It counts as biochemical. From the text:
(§1) The in vitro activity of compounds of Formula (I) and (II) in inhibiting BMX and other kinases were obtained using an Invitrogen Select Screening assay as known in the art. The IC50 values determined from this assay are shown below.

The next experiment has as its target BTK (Homo sapiens (Human), UniProt Q06187). The experiment in a line: Invitrogen Select Screening in vitro kinase assay. Format: biochemical.
For another experiment, the target named is BMX (Homo sapiens (Human), UniProt P51813). In words: Invitrogen Select Screening in vitro kinase assay. Format: biochemical.
In a further experiment the test system is MWCL-1 cells. In words: Cell proliferation analysis for WM and lymphoma cell lines (CellTiter-Glo). Format: cell-based. Conditions: 72 hours.
The target of the next experiment is JAK3 (Homo sapiens (Human), UniProt P52333). The experiment in a line: Invitrogen Select Screening in vitro kinase assay. It counts as biochemical.
The test system of a further experiment is BCWM.1 cells. The experiment in a line: Cell proliferation analysis for WM and lymphoma cell lines (CellTiter-Glo). Format: cell-based. Conditions: BCWM1; 72 hours.
For the next experiment, the system named is OCI-Ly19 cells. The description is as above. Conditions: Homo sapiens, 72 hours. Format: cell-based.
Another experiment concerns OCI-Ly3 cells. The description is as above. Format: cell-based. The conditions noted are these: Homo sapiens, 72 hours.
A further experiment deals with BLK (Homo sapiens (Human), UniProt P51451). The experiment in a line: Invitrogen Select Screening in vitro kinase assay. It counts as biochemical.
Source text: as §1

The subject of the next experiment is Ramos cells. In words: Cell proliferation analysis for WM and lymphoma cell lines (CellTiter-Glo). It counts as cell-based. Conditions: Homo sapiens, 72 hours. On the technique in general: In ATP-based viability assays light output follows the ATP content of the culture.

Several values for one entry are separate records, joined by “and”; a condition that tells them apart may be missing. Equal entries are not always repeated.

Chain of JAK3 (P52333 whole entry): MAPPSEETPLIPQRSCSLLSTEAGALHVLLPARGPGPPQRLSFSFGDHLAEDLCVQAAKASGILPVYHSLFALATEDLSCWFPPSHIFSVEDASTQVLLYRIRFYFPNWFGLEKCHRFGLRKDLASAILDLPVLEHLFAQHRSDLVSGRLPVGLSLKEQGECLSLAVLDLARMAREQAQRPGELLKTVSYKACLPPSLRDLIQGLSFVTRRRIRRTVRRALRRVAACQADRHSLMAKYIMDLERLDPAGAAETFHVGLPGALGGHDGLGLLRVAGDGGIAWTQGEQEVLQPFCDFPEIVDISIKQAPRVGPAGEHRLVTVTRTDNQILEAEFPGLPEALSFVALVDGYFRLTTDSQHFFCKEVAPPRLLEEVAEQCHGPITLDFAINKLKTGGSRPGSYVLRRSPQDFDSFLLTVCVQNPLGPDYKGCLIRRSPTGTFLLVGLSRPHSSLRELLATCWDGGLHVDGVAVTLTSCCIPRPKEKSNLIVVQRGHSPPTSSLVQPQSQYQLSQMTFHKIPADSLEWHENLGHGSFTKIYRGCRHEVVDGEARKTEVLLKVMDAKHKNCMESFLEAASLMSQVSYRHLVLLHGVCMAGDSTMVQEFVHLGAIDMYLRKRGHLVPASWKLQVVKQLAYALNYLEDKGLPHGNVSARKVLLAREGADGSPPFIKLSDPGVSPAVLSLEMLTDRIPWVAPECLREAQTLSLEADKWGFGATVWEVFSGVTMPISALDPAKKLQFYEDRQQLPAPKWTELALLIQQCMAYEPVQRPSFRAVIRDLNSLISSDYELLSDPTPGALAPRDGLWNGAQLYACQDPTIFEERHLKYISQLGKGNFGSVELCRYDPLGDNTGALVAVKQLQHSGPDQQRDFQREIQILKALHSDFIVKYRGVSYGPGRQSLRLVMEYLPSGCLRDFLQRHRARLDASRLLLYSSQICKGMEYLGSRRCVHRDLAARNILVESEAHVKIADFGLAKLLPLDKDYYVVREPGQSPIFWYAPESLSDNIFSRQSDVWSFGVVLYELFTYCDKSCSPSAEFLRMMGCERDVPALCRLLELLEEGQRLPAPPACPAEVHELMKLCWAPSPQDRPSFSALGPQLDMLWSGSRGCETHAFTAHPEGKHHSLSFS
Chain of BTK (Q06187 whole entry): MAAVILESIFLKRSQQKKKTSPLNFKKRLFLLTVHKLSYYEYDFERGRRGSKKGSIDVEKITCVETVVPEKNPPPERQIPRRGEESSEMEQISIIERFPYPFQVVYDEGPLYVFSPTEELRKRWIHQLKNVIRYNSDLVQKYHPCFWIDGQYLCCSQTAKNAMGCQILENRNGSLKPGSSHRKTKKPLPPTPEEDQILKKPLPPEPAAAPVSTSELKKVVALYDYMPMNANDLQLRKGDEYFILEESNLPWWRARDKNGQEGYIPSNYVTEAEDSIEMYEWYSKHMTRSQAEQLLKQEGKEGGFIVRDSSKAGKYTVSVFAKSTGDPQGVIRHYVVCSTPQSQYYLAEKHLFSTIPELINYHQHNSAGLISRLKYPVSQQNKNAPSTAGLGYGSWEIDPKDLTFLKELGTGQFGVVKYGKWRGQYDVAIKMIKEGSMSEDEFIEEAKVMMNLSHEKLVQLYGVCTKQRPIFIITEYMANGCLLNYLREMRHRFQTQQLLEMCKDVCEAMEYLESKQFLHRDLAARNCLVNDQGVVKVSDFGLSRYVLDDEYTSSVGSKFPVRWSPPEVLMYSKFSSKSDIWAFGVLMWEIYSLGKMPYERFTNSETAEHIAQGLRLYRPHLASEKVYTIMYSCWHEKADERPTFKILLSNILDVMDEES
Chain of BMX (P51813 whole entry): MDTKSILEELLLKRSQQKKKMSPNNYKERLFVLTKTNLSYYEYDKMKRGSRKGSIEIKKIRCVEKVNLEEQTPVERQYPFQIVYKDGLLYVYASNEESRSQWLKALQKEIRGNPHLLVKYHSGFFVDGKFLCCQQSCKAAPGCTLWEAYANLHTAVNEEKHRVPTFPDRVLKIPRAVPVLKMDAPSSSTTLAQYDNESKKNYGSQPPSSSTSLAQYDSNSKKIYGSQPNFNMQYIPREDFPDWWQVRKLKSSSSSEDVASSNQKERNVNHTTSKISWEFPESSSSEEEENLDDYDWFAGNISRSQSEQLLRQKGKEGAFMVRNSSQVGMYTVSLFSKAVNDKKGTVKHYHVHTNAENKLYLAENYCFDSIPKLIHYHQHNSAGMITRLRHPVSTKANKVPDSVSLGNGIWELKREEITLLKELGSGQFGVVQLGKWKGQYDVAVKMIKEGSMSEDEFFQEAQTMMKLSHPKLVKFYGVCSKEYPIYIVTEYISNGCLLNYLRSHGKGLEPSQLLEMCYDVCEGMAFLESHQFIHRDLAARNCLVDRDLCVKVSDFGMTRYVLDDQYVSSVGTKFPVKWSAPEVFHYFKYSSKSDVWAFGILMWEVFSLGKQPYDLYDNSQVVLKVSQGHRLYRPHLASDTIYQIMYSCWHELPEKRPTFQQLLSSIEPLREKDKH
Chain of BLK (P51451 whole entry): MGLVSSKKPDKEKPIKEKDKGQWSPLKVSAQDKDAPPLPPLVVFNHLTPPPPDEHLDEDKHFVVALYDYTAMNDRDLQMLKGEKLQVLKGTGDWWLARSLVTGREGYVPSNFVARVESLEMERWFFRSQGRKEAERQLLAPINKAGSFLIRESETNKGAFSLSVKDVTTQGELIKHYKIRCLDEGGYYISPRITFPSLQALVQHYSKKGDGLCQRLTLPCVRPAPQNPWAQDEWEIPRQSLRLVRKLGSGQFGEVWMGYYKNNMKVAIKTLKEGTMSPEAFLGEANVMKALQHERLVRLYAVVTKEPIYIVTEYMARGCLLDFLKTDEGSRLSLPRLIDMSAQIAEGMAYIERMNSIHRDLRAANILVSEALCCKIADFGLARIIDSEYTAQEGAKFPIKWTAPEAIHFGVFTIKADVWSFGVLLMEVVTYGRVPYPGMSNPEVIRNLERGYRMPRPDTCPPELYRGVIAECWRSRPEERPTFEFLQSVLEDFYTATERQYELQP
Procedure for BCWM.1 cells: (§2) Various cell lines were used including Waldenström's macroglobulinemia (WM) cell lines (BCWM.1, MWCL-1, RPCI-WM1) and B-cell lymphoma cell lines (OCI-Ly3, Ramos, OCI-Ly19). Cells were seeded into 384 well plates with the EL406 Combination Washer Dispenser (BioTek Instruments, Inc.) and inhibitor compounds were injected into the cells culture media with the JANUS Automated Workstation (PerkinElmer Inc.).
Procedure for MWCL-1 cells: as §2
Procedure for OCI-Ly19 cells: as §2
Procedure for OCI-Ly3 cells: as §2
Procedure for Ramos cells: as §2

As to `C=CC(=O)Nc1cc(-n2c(=O)ccc3cnc4ccc(-c5cnn(C)c5)cc4c32)ccc1C` [II-3], the IC50 at mTOR is 173 nM; against BTK, 14 nM; against BMX, 8.16 nM and 8 nM.

Take `C=CC(=O)Nc1cc(-n2c(=O)ccc3cnc4ccc(-c5cccnc5)cc4c32)ccc1C` [II-11]: the 50% effective concentration (EC50) in the experiment on MWCL-1 cells amounted to 670 nM; in the experiment on BCWM.1 cells, 190 nM; in the experiment with OCI-Ly19 cells it was 90 nM; in the experiment with OCI-Ly3 cells it was 240 nM; in the experiment with Ramos cells, 200 nM. For the same compound, the IC50 was 1520 nM against JAK3; 1950 nM against BLK; 1 nM on mTOR; 115 nM at BTK; 66.1 nM and 66 nM on BMX.

Consider `C=CC(=O)Nc1cc(-n2c(=O)ccc3cnc4ccc(-c5ccc6ccncc6c5)cc4c32)ccc1C` [I-21], for which the EC50 in the experiment with MWCL-1 cells came out at 56 nM; in the experiment on BCWM.1 cells, 93 nM; with OCI-Ly19 cells, 90 nM; in the experiment with OCI-Ly3 cells, 109 nM; with Ramos cells it was 57 nM.

In turn, `C=CC(=O)N1CCc2ccc(-n3c(=O)ccc4cnc5ccc(-c6cnc(N)cc6C(F)(F)F)cc5c43)cc21` [II-15] returned an IC50 on BTK of 337 nM.

`C=CC(=O)Nc1cc(-n2c(=O)ccc3cnc4ccc(-c5ccc(C(N)=O)cc5)cc4c32)ccc1C` [I-15] gave a half-maximal inhibitory concentration (IC50) against BTK of 79 nM.

Turning to `C=CC(=O)N1CCc2ccc(-n3c(=O)ccc4cnc5ccc(-c6ccc(C(=O)NC)cc6F)cc5c43)cc21` [I-9], the IC50 at BTK was 54 nM. The IC50 values of the last two compounds are within 1.5-fold of each other.

`C=CC(=O)N1CCc2ccc(-n3c(=O)ccc4cnc5ccc(-c6ccc(N7CCN(C)CC7)cc6)cc5c43)cc21` [I-17]: the half-maximal effective concentration (EC50) in the experiment on MWCL-1 cells was 1780 nM; with BCWM.1 cells it was 490 nM; with OCI-Ly19 cells it was 80 nM; in the experiment with OCI-Ly3 cells, 1120 nM; in the experiment with Ramos cells it was 420 nM. For the same compound, the IC50 worked out at 5580 nM at JAK3, 516 nM against mTOR, 155 nM against BTK and 399 nM against BMX.

For `C=CC(=O)Nc1cc(-n2c(=O)ccc3cnc4ccc(-c5ccc6occc6c5)cc4c32)ccc1C` [I-20], the EC50 with MWCL-1 cells was 798 nM; in the experiment on BCWM.1 cells, 1020 nM; in the experiment with OCI-Ly19 cells, more than 20000 nM; with OCI-Ly3 cells, 1100 nM; with Ramos cells, 602 nM.

For the compound `C=CC(=O)Nc1cc(-n2c(=O)ccc3cnc4ccc(-c5ccccc5)cc4c32)ccc1C` [I-7], the EC50 worked out at 950 nM in the experiment with MWCL-1 cells; 180 nM in the experiment with BCWM.1 cells; 10 nM with OCI-Ly19 cells; 380 nM in the experiment with OCI-Ly3 cells; 310 nM in the experiment on Ramos cells. The IC50 against BLK is 250 nM; against mTOR, 210 nM; at BTK, 25 nM; at BMX it was 15.9 nM and 16 nM.

For the compound `C=CC(=O)Nc1cc(-n2c(=O)ccc3cnc4ccc(-c5ccc6c(c5)OCO6)cc4c32)ccc1C` [I-23], the EC50 came to 610 nM with MWCL-1 cells; 849 nM in the experiment on BCWM.1 cells; 19 nM in the experiment on OCI-Ly19 cells; 1170 nM with OCI-Ly3 cells; 653 nM with Ramos cells.

As for `C=CC(=O)Nc1cc(-n2c(=O)ccc3cnc4ccc(-c5cnc6ccccc6c5)cc4c32)ccc1C` [II-16], the IC50 against mTOR is 32 nM; against BTK it was 25 nM; on BMX, 18.5 nM and 19 nM.

`C=CC(=O)Nc1cc(-n2c(=O)ccc3cnc4ccc(-c5ccsc5)cc4c32)ccc1C` [II-9]: the IC50 against mTOR is 369 nM; on BTK, 39 nM; on BMX, 19.7 nM and 20 nM.

As for `C=CC(=O)Nc1cc(-n2c(=O)ccc3cnc4ccc(-c5ccc6[nH]ncc6c5)cc4c32)ccc1C` [I-22], the EC50 in the experiment on MWCL-1 cells is 117 nM; in the experiment on BCWM.1 cells, 203 nM; in the experiment with OCI-Ly19 cells, 51 nM; in the experiment with OCI-Ly3 cells, 180 nM; in the experiment on Ramos cells, 91 nM.

On to `C=CC(=O)Nc1cc(-n2c(=O)ccc3cnc4ccc(-c5ccoc5)cc4c32)ccc1C` [II-10], for which the EC50 was determined as 2160 nM with MWCL-1 cells; 410 nM with BCWM.1 cells; 70 nM with OCI-Ly19 cells; 480 nM with OCI-Ly3 cells; 280 nM in the experiment with Ramos cells. The IC50 on JAK3 is 492 nM; at mTOR, 4790 nM; against BTK, 17 nM; at BMX it was 12.1 nM and 12 nM.

Consider `C=CC(=O)N1CCc2ccc(-n3c(=O)ccc4cnc5ccc(-c6cnc7ccccc7c6)cc5c43)cc21` [II-12], for which the IC50 against mTOR was 59 nM; at BTK, 7 nM; on BMX, 5.62 nM and 6 nM.

With `C=CC(=O)Nc1cccc(-n2c(=O)ccc3cnc4ccc(-c5cn[nH]c5)cc4c32)c1` [II-8], the IC50 against mTOR was 41 nM; against BTK, 18 nM; on BMX, 10.5 nM and 11 nM.

Take `C=CC(=O)N1CCc2ccc(-n3c(=O)ccc4cnc5ccc(-c6ccc(COc7cccc(C(F)(F)F)c7)cc6)cc5c43)cc21` [I-10]: the EC50 with MWCL-1 cells turned out to be 5750 nM; in the experiment with BCWM.1 cells it was 2120 nM; in the experiment on OCI-Ly19 cells it was 290 nM; with OCI-Ly3 cells it was 3660 nM; in the experiment on Ramos cells, 3770 nM. In addition, the IC50 on BTK is 1060 nM; against BMX it was more than 10000 nM.

Consider `C=CC(=O)N1CCc2ccc(-n3c(=O)ccc4cnc5ccc(-c6ccc(S(=O)(=O)NC(C)(C)C)cc6)cc5c43)cc21` [I-11], for which the IC50 at mTOR is 536 nM; at BTK, 11 nM; at BMX it was 18.1 nM and 18 nM.

For the compound `C=CC(=O)Nc1cc(-n2c(=O)ccc3cnc4ccc(-c5ccc6ocnc6c5)cc4c32)ccc1C` [I-24], the EC50 in the experiment on MWCL-1 cells was 284 nM; with BCWM.1 cells, 345 nM; in the experiment on OCI-Ly19 cells, 24 nM; in the experiment on OCI-Ly3 cells it was 516 nM; in the experiment with Ramos cells, 355 nM.

As for `C=CC(=O)Nc1cc(-n2c(=O)ccc3cnc4ccc(-c5ccc6c(c5)OCCO6)cc4c32)ccc1C` [I-18], the IC50 was 642 nM against mTOR; 16 nM against BTK; 13.3 nM and 13 nM against BMX.

On to `C=CC(=O)Nc1cc(-n2c(=O)ccc3cnc4ccc(/C=C/c5ccccc5)cc4c32)ccc1C` [I-16], for which the EC50 in the experiment on MWCL-1 cells was determined as 1780 nM; with BCWM.1 cells it was 490 nM; with OCI-Ly19 cells, 80 nM; in the experiment with OCI-Ly3 cells, 1120 nM; with Ramos cells it was 420 nM. Also, the IC50 against BTK was 105 nM; on BMX, 27.8 nM and 28 nM.

Consider `C=CC(=O)Nc1cccc(-n2c(=O)ccc3cnc4ccc(-c5ccc(N)nc5)cc4c32)c1` [II-7], for which the IC50 is 19 nM at mTOR; 19 nM against BTK; 15.7 nM and 16 nM on BMX.

Consider `C=CC(=O)Nc1cc(-n2c(=O)ccc3cnc4ccc(-c5ccc(COc6cccc(C(F)(F)F)c6)cc5)cc4c32)ccc1C` [I-13], for which the IC50 is 37 nM on BTK; 18.1 nM and 28 nM on BMX.

Turning to `C=CC(=O)Nc1cc(-n2c(=O)ccc3cnc4ccc(-c5ccc(NC(=O)NC)cc5)cc4c32)ccc1C` [I-8], the IC50 against JAK3 is 4170 nM; on BTK, 66 nM; against BMX, 40.6 nM.

One may read the IC50 as the midpoint of a concentration-inhibition curve. The low end stands for higher potency, the high end for lower potency. As a reminder, the EC50 is the midpoint of the concentration-response curve.
